Measurements reported in ChEMBL document CHEMBL1126339, “HMG-CoA reductase inhibitors 4. Tetrazole series: conformational constraints and structural requirements at the hydrophobic domain” (Bioorg Med Chem Lett, 1992).

Molecular target: T1, 3-hydroxy-3-methylglutaryl-coenzyme A reductase (Rattus norvegicus, UniProt P51639)
T1 sequence (P51639 whole entry): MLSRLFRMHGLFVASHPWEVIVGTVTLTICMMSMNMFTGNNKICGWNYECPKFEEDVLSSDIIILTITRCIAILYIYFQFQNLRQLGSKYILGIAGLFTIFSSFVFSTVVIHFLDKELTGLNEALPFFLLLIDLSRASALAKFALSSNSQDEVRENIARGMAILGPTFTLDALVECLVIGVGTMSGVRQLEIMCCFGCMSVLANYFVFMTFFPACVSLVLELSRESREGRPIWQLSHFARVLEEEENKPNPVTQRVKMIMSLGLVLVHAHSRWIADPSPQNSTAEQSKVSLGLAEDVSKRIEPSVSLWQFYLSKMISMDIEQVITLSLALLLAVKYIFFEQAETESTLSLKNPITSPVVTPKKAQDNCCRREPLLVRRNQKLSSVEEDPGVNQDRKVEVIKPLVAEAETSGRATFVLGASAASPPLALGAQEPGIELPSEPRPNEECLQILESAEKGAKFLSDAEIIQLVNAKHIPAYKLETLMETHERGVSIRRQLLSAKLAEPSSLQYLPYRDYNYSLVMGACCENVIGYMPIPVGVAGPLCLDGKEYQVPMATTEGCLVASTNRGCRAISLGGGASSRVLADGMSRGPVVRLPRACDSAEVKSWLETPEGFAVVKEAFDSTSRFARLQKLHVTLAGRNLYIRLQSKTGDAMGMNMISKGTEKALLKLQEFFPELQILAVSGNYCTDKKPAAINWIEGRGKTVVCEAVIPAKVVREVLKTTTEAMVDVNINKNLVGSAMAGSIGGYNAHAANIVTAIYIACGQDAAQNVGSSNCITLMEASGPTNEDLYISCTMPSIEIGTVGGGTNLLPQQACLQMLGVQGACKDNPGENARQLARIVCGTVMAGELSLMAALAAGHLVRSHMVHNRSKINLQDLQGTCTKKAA
Experiment: Compound was tested for its inhibitory activity against rat liver microsomal HMG-CoA reductase

Going from `Cn1nnnc1C(/C=C/C(O)CC(O)CC(=O)O)=C(c1ccc(F)cc1)c1ccc(F)cc1` (stereo unspecified) to `Cn1nnnc1C(/C=C/C(O)CC(O)CC(=O)O)=C/c1ccc(F)cc1` (stereo unspecified), the IC50 rises from 0.043 µM to greater than 250 µM. The first is the more potent here.

`Cn1nnnc1C(/C=C/C(O)CC(O)CC(=O)O)=C1c2ccc(F)cc2-c2cc(F)ccc21` (stereo unspecified) and `Cn1nnnc1C(=C\c1ccc(F)cc1)/C=C/C(O)CC(O)CC(=O)O` (stereo unspecified) cannot be ordered by IC50: greater than 4.1 µM for the first, 210 µM for the second.

Going from `O=C(O)CC(O)CC(O)/C=C/c1c(-c2ccc(F)cc2)c2ccccc2n2nnnc12` (stereo unspecified) to `Cn1nnnc1C(CCC(O)CC(O)CC(=O)O)Cc1ccc(F)cc1` (stereo unspecified), the IC50 rises from 4.6 µM to greater than 250 µM. The first is the more potent here.
